Our source for the IC50 values is ChEMBL document CHEMBL1126199, “(R)-(-)- and (S)-(+)-adenallene: synthesis, absolute configuration, enantioselectivity of antiretroviral effect, and enzymic deamination” (J Med Chem, 1992).

The assay deals with Human immunodeficiency virus 1. The experiment in a line: Compound was tested for inhibition of HIV-1. In kind it is functional, organism-based.
The IC50 is the concentration that inhibits the measured activity by half. The compound `Nc1ncnc2c1ncn2C=C=CCO` (stereo in doubt; 1a) came in with a half-maximal inhibitory concentration (IC50) of 14 µM.

Turning to `Nc1ncnc2c1ncn2C=C=CCO` (stereo in doubt; 2), the half-inhibitory concentration (IC50) amounted to 5.8 µM.

Take `Nc1ncnc2c1ncn2C=C=CCO` (stereo in doubt; 3): the half-maximal inhibitory concentration (IC50) is more than 200 µM.
